Biological target: T1, SH3-2 domain of NCK1 (Homo sapiens, UniProt P16333)
T1 construct: To amplify the NCK1 SH3-2 domain, the primers; 10xHis tag with TEV site (vector pSF-OXB20-NH2-10HIS) (N, cleaved yes); made in house; host or cells: E. coli C43(DE3)
Experiment: Isothermal titration calorimetry (ITC) binding to NCK1 SH3-2 domain
Conditions: ITC; for Kd: 25 °C, pH 8.0
Source text: Human PTP1B cDNA (NM_002827) and human NCK1 cDNA (NM 006153) were obtained (Origene, MD, USA). PTP1B Primers were designed to amplify the ORFs with added homology to the cut vector (EcoRI-digested pSF-OXB20-NH2-10HIS) in the forward primer sequence. To amplify full-length PTP1B, the primers ptp1b_FL_fwd ([…]) (SEQ ID NO: 159) and ptp1b_FL_rev ([…]) (SEQ ID NO: 160) were used. To amplify truncations of PTP1B, the following primer pairs were used: ptp1b_FL-Fwd and one of Ptplb_323stop_rev (gtgcaggaggagttcgaatt[…]) (SEQ ID NO: 161), ptp1b_344stop_rev ([…]) (SEQ ID NO: 162) or ptp1b_278stop_rev([…]) (SEQ ID NO: 163). To amplify the NCK1 SH3-2 domain, the primers ncklsh32_fwd ([…]) (SEQ ID NO: 164) and ncklsh32_rev ([…]) (SEQ ID NO: 165) were used. The amplified fragments were purified using a DNA clean-up kit according to manufacturer's instructions (QIAquick PCR purification kit, Qiagen).
To produce and purify fusion proteins, a culture was inoculated with 1% of overnight-cultured inoculum. Protein expression was carried out under the conditions described above, scaled up as necessary. Cells expressing the recombinant proteins were harvested in 50 mL tubes by centrifugation and stored at −80 °C. Cells containing the expressed gene product were thawed over ice and resuspended in Extraction buffer (10 mM Tris, pH 7.4 or 10 mM Sodium Phosphate, pH 8.0; 300 mM NaCl, 1 mM DTT or TCEP; 0-10% glycerol and 1 μg lysozyme) and sonicated over ice (4 °C) for 3 min total using pulses of 5 s with 15 s intervals, using a wide probe at 15 amplitude microns (Soniprep 150, MSE). Insoluble material was removed from the lysate by centrifugation at 20K rpm for 20-60 min at 4 °C. Supernatant was filtered through a 0.22 μm PVDF filter membrane and applied to 1-2 5 mL HisTrap FF Crude (Cytiva) prepacked Ni columns and connected to an AKTA explorer. After thorough washing with binding buffer (10 mM Tris, pH 7.4 or 10 mM Sodium Phosphate, pH 8.0; 300 mM NaCl; 1 mM DTT or TCEP and 25 mM Imidazole), protein was eluted using elution buffer (10 mM Tris, pH 7.4 or 10 mM Sodium Phosphate, pH 8.0; 150-300 mM NaCl; 1 mM DTT or TCEP and 250 mM Imidazole). Fractions containing protein of interest were confirmed by SDS PAGE. Protein was diluted with GF buffer (10 mM Tris, pH 7.4 or 10 mM Sodium Phosphate, pH 8.0; 150-300 mM NaCl) and subjected to TEV protease treatment overnight at 4-10 °C. Following proteolytic digestion, HIS-tag and TEV protease were removed by filtration through a clean 5 mL HisTrap FF Crude (Cytiva) prepacked Ni column. Protein was concentrated on a PES ultrafiltration device by centrifugation at 4000 rpm at 4 °C, and protein was polished via a HiPrep S-100 26/60 (Cytiva) using GF buffer (as described above). Purified proteins were concentrated using ultrafiltration, and protein concentration was determined using ultraviolet-visible spectroscopy. The integrity and identity of all proteins were verified by mass spectrographic analysis.
Isothermal titration calorimetry (ITC) was used to determine binding affinities for peptides against the SH3-2 domain of NCK1. Experiments were conducted at 25 °C using either a MicroCal iTC200 or MicroCal PEAQ-ITC calorimeter. The buffer used for all ITC experiments was 10 mM sodium [COMPOUND LEFT OUT] mM sodium chloride (pH=8.0). A series of peptides (concentration 3-7.5 mM) were titrated in to NCK1 SH3-2 domain (concentration 0.125-0.3 mM) using the following conditions: one injection of 0.2 μL followed by 19 injections of 2 μL, 120-150 seconds spacing between injections, at 25 °C. The data were fit using analysis software provided by the manufacturer and affinity values were calculated. The best fitting occurred when the number of sites was between 0.8 and 1.2. The experiments were repeated twice for a total of three times, and the average binding affinity for each peptide was generated. […]

[1] = Sliding window peptide analysis
[2] = substitutions at position 4 of MD18 in a 7-mer
[3] = substitutions at position 6 of MD18
[4] = substitutions at position 8 of the 8-mer MH063, certain peptides tested one to three times
[5] = N- or C-terminal extensions, 30-mers tested one to three times

Ac-PPPPRPPKR-NH2 [MH025]
Kd (Peptide truncation analysis): ≤ 300 µM

Ac-PPPRPP-NH2 [MH036, Ac-PPPRPP-NH2]
Kd [1]: > 1000 µM

Ac-PPPRPPK-NH2 [MH041, Ac-PPPRPPK-NH2]
binding to NCK1 SH3-2 domain (in words): abolished binding | Kd [1]: > 1000 µM

Ac-PPPRPPKR-NH2 [MH024]
Kd (Peptide truncation analysis): ≤ 300 µM

Ac-PPQPPKR-NH2 [MH087, Ac-PPQPPKR-NH2]
Kd (substitutions at position 3 of MD18): ≤ 300 µM

Ac-PPRCPKR-NH2 [MH129, Ac-PPRCPKR-NH2]
Kd [2]: > 1000 µM

Ac-PPRDPKR-NH2 [MH128, Ac-PPRDPKR-NH2]
Kd [2]: > 1000 µM

Ac-PPREPKR-NH2 [MH130, Ac-PPREPKR-NH2]
Kd [2]: > 1000 µM

Ac-PPRFPKR-NH2 [MH067, Ac-PPRFPKR-NH2]
Kd [2]: 600 to 1000 µM

Ac-PPRGPKR-NH2 [MH093, Ac-PPRGPKR-NH2]
Kd [2]: > 1000 µM

Ac-PPRHPKR-NH2 [MH132, Ac-PPRHPKR-NH2]
Kd [2]: > 1000 µM

Ac-PPRIPKR-NH2 [MH097, Ac-PPRIPKR-NH2]
Kd [2]: ≤ 300 µM

Ac-PPRKPKR-NH2 [MH104, Ac-PPRKPKR-NH2]
Kd [2]: 300 to 600 µM

Ac-PPRLPKR-NH2 [MH101, Ac-PPRLPKR-NH2]
Kd [2]: 300 to 600 µM

Ac-PPRMPKR-NH2 [MH111, Ac-PPRMPKR-NH2]
Kd [2]: > 1000 µM

Ac-PPRNPKR-NH2 [MH127, Ac-PPRNPKR-NH2]
Kd [2]: > 1000 µM

Ac-PPRPPCR-NH2 [MH054, Ac-PPRPPCR-NH2]
Kd [3]: ≤ 300 µM

Ac-PPRPPDR-NH2 [MH085, Ac-PPRPPDR-NH2]
Kd [3]: 300 to 600 µM

Ac-PPRPPER-NH2 [MH051, Ac-PPRPPER-NH2]
Kd [3]: ≤ 300 µM

Ac-PPRPPFR-NH2 [MH105, Ac-PPRPPFR-NH2]
Kd [3]: 300 to 600 µM

Ac-PPRPPGR-NH2 [MH094, Ac-PPRPPGR-NH2]
Kd [3]: 600 to 1000 µM

Ac-PPRPPHR-NH2 [MH049, Ac-PPRPPHR-NH2]
Kd [3]: ≤ 300 µM

Ac-PPRPPIR-NH2 [MH098, Ac-PPRPPIR-NH2]
Kd [3]: ≤ 300 µM

Ac-PPRPPK-NH2 [MH035, Ac-PPRPPK-NH2]
binding to NCK1 SH3-2 domain (in words): abolished binding | Kd [1]: > 1000 µM

Ac-PPRPPKK-NH2 [MH076, Ac-PPRPPKK-NH2]
Kd (Modified MD18/MD20 peptides): > 1000 µM

Ac-PPRPPKRA-NH2 [MH138]
Kd [4]: ≤ 300 µM

Ac-PPRPPKRC-NH2 [MH142]
Kd [4]: ≤ 300 µM

Ac-PPRPPKRD-NH2 [MH141]
Kd [4]: ≤ 300 µM

Ac-PPRPPKRF-NH2 [MH150]
Kd [4]: ≤ 300 µM

Ac-PPRPPKRG-NH2 [MH145]
Kd [4]: ≤ 300 µM

Ac-PPRPPKRH-NH2 [MH146]
Kd [4]: ≤ 300 µM

Ac-PPRPPKRI-NH2 [MH063]
Kd [5]: ≤ 300 µM | Kd [4]: ≤ 300 µM

Ac-PPRPPKRIL-NH2 [MH064]
Kd [5]: ≤ 300 µM

Ac-PPRPPKRILE-NH2 [MH065]
Kd [5]: ≤ 300 µM

Ac-PPRPPKRK-NH2 [MH148]
Kd [4]: ≤ 300 µM

Ac-PPRPPKRL-NH2 [MH147]
Kd [4]: ≤ 300 µM

Ac-PPRPPKRM-NH2 [MH149]
Kd [4]: ≤ 300 µM

Ac-PPRPPKRN-NH2 [MH140]
Kd [4]: ≤ 300 µM

Ac-PPRPPKRP-NH2 [MH151]
Kd [4]: 300 to 600 µM

Ac-PPRPPKRR-NH2 [MH139]
Kd [4]: ≤ 300 µM

Ac-PPRPPKRS-NH2 [MH152]
Kd [4]: ≤ 300 µM

Ac-PPRPPKRW-NH2 [MH154]
Kd [4]: ≤ 300 µM

— US20260365696A1, “INHIBITORS OF PTP1B / NCK1 INTERACTION AND METHODS OF MAKING AND USING SAME” (Radella Pharmaceuticals LLC, priority 2023, published 2026)
